{"source": "patent US20240216381A1", "about": "“Px-cholorogenic Acid Comps” (PX ING, LLC, priority 2022, published 2024)", "data": [{"tested_on": "brain biomarkers", "assay": "Brain biomarkers in rats of the Elevated Plus Maze example", "format": "in vivo, Swiss Albino Wistar rats", "design": "Achetylcholine, Improvement over P-Control / Dopamine, Improvement over P-Control / Glutathione, Improvement over P-Control / Catalse, Improvement over P-Control / BDNF, Improvement over P-Control / Serotonin, Improvement over P-Control / Cortisol, Improvement over P-Control: concentration or dose not given beside the values", "settings": "oral ten days, Scopolamine 1 mg/kg", "method": "(§1) The rats were randomized into nine groups containing eight rats in each group. […] The rats were treated with test substances daily for ten consecutive days.\n(§2) On the tenth day test, test substances were administered orally thirty minutes before a 1 mg/kg body weight Scopolamine injection to induce amnesia in rats to all groups except control group. Administration of the Scopolamine injections were done via intraperitoneal injection. This was followed by behavioral test using Elevated Plus Maze apparatus to measure the long-term memory enhancing activity.\n(§3) Several brain biomarkers were also measured in the rats.", "units": {"Achetylcholine, brain biomarker": "U/ml", "BDNF, brain biomarker": "pg/mL", "Catalse, brain biomarker": "U/mL", "Cortisol, brain biomarker": "ng/mL", "Dopamine, brain biomarker": "ng/L", "Glutathione, brain biomarker": "µg/mL", "Serotonin, brain biomarker": "ng/mL"}, "values": [{"smiles": "O=C(/C=C/c1ccc(O)c(O)c1)O[C@@H]1C[C@](O)(C(=O)O)C[C@@H](O)[C@H]1O", "note": "[Chlorogenic acid]", "Achetylcholine, brain biomarker": 33.17, "BDNF, brain biomarker": 18.05, "Catalse, brain biomarker": 161.91, "Cortisol, brain biomarker": 68.51, "Dopamine, brain biomarker": 15.58, "Glutathione, brain biomarker": 19.89, "Serotonin, brain biomarker": 38.43}, {"smiles": "Cn1c(=O)[nH]c2ncn(C)c2c1=O", "note": "[Paraxanthine]", "Achetylcholine, brain biomarker": 32.04, "BDNF, brain biomarker": 17.72, "Catalse, brain biomarker": 159.83, "Cortisol, brain biomarker": 73.99, "Dopamine, brain biomarker": 15.06, "Glutathione, brain biomarker": 19.57, "Serotonin, brain biomarker": 38.03}, {"smiles": "Cn1c(=O)[nH]c2nc[nH]c2c1=O", "note": "[1-Methylxanthine, 1-methylxanthine]", "Achetylcholine, brain biomarker": 28.97, "BDNF, brain biomarker": 17.29, "Catalse, brain biomarker": 155.96, "Cortisol, brain biomarker": 79.4, "Dopamine, brain biomarker": 14.51, "Glutathione, brain biomarker": 17.94, "Serotonin, brain biomarker": 41.63}]}, {"tested_on": "brain biomarkers", "assay": "Brain biomarkers in rats of the Elevated Plus Maze example", "format": "in vivo, Swiss Albino Wistar rats", "design": "Achetylcholine, Improvement over P-Control / Dopamine, Improvement over P-Control / Glutathione, Improvement over P-Control / Catalse, Improvement over P-Control / BDNF, Improvement over P-Control / Serotonin, Improvement over P-Control / Cortisol, Improvement over P-Control: concentration or dose not given beside the values", "settings": "vs Pathological Control (Scopolamine)", "method": "as §1, §2, §3", "units": {"Achetylcholine, Improvement over P-Control": "%", "BDNF, Improvement over P-Control": "%", "Catalse, Improvement over P-Control": "%", "Cortisol, Improvement over P-Control": "%", "Dopamine, Improvement over P-Control": "%", "Glutathione, Improvement over P-Control": "%", "Serotonin, Improvement over P-Control": "%"}, "values": [{"smiles": "O=C(/C=C/c1ccc(O)c(O)c1)O[C@@H]1C[C@](O)(C(=O)O)C[C@@H](O)[C@H]1O", "note": "[Chlorogenic acid]", "Achetylcholine, Improvement over P-Control": 54, "BDNF, Improvement over P-Control": 37, "Catalse, Improvement over P-Control": 34, "Cortisol, Improvement over P-Control": "−24", "Dopamine, Improvement over P-Control": 34, "Glutathione, Improvement over P-Control": 46, "Serotonin, Improvement over P-Control": "−19"}, {"smiles": "Cn1c(=O)[nH]c2ncn(C)c2c1=O", "note": "[Paraxanthine]", "Achetylcholine, Improvement over P-Control": 49, "BDNF, Improvement over P-Control": 34, "Catalse, Improvement over P-Control": 32, "Cortisol, Improvement over P-Control": "−18", "Dopamine, Improvement over P-Control": 30, "Glutathione, Improvement over P-Control": 44, "Serotonin, Improvement over P-Control": "−20"}, {"smiles": "Cn1c(=O)[nH]c2nc[nH]c2c1=O", "note": "[1-Methylxanthine, 1-methylxanthine]", "Achetylcholine, Improvement over P-Control": 34, "BDNF, Improvement over P-Control": 31, "Catalse, Improvement over P-Control": 29, "Cortisol, Improvement over P-Control": "−12", "Dopamine, Improvement over P-Control": 25, "Glutathione, Improvement over P-Control": 32, "Serotonin, Improvement over P-Control": "−12"}]}, {"tested_on": "Scopolamine induced amnesia in rats", "assay": "Cognitive enhancing effect, Elevated Plus Maze, Scopolamine induced amnesia in rats", "format": "in vivo, Swiss Albino Wistar rats", "settings": "oral daily for ten days, day 10, 30 min before 1 mg/kg Scopolamine i.p., 50 mg HED PX or 1-MX, 25 mg HED CA", "method": "(§4) The example was to evaluate the effect of the test substances on behavioral activity/memory enhancing activity in experimental rats.\nas §1, §2", "units": {"rat escape latency, Elevated Plus Maze": "s"}, "values": [{"smiles": "O=C(/C=C/c1ccc(O)c(O)c1)O[C@@H]1C[C@](O)(C(=O)O)C[C@@H](O)[C@H]1O", "note": "[Chlorogenic acid]", "rat escape latency, Elevated Plus Maze": 30}, {"smiles": "Cn1c(=O)[nH]c2ncn(C)c2c1=O", "note": "[Paraxanthine]", "rat escape latency, Elevated Plus Maze": 36.66}, {"smiles": "Cn1c(=O)[nH]c2nc[nH]c2c1=O", "note": "[1-Methylxanthine, 1-methylxanthine]", "rat escape latency, Elevated Plus Maze": 33.89}]}, {"tested_on": "Scopolamine induced amnesia in rats", "assay": "Cognitive enhancing effect, Elevated Plus Maze, Scopolamine induced amnesia in rats", "format": "in vivo, Swiss Albino Wistar rats", "settings": "vs Pathological Control (Scopolamine)", "method": "as §4, §1, §2", "units": {"rat escape latency, Elevated Plus Maze, Improvement over P-Control": "%"}, "values": [{"smiles": "O=C(/C=C/c1ccc(O)c(O)c1)O[C@@H]1C[C@](O)(C(=O)O)C[C@@H](O)[C@H]1O", "note": "[Chlorogenic acid]", "rat escape latency, Elevated Plus Maze, Improvement over P-Control": 68}, {"smiles": "Cn1c(=O)[nH]c2ncn(C)c2c1=O", "note": "[Paraxanthine]", "rat escape latency, Elevated Plus Maze, Improvement over P-Control": 38}, {"smiles": "Cn1c(=O)[nH]c2nc[nH]c2c1=O", "note": "[1-Methylxanthine, 1-methylxanthine]", "rat escape latency, Elevated Plus Maze, Improvement over P-Control": 49}]}, {"tested_on": "Scopolamine induced amnesia in rats", "assay": "Cognitive enhancing effect, Morris Water Maze, Scopolamine induced amnesia in rats", "format": "in vivo, Swiss Albino Wistar rats", "settings": "oral daily for ten days, day 10, 30 min before 1 mg/kg Scopolamine i.p., 50 mg HED PX or 1-MX, 25 mg HED CA", "method": "as §4, §1\nas §2, with “Morris Water” for “Elevated Plus”", "units": {"rat escape latency, Morris Water Maze": "s"}, "values": [{"smiles": "O=C(/C=C/c1ccc(O)c(O)c1)O[C@@H]1C[C@](O)(C(=O)O)C[C@@H](O)[C@H]1O", "note": "[Chlorogenic acid]", "rat escape latency, Morris Water Maze": 28.54}, {"smiles": "Cn1c(=O)[nH]c2ncn(C)c2c1=O", "note": "[Paraxanthine]", "rat escape latency, Morris Water Maze": 30.46}, {"smiles": "Cn1c(=O)[nH]c2nc[nH]c2c1=O", "note": "[1-Methylxanthine, 1-methylxanthine]", "rat escape latency, Morris Water Maze": 32.43}]}, {"tested_on": "Scopolamine induced amnesia in rats", "assay": "Cognitive enhancing effect, Morris Water Maze, Scopolamine induced amnesia in rats", "format": "in vivo, Swiss Albino Wistar rats", "settings": "vs Pathological Control (Scopolamine)", "method": "as §4, §1\nas §2, with “Morris Water” for “Elevated Plus”", "units": {"rat escape latency, Morris Water Maze, Improvement over P-Control": "%"}, "values": [{"smiles": "O=C(/C=C/c1ccc(O)c(O)c1)O[C@@H]1C[C@](O)(C(=O)O)C[C@@H](O)[C@H]1O", "note": "[Chlorogenic acid]", "rat escape latency, Morris Water Maze, Improvement over P-Control": 72}, {"smiles": "Cn1c(=O)[nH]c2ncn(C)c2c1=O", "note": "[Paraxanthine]", "rat escape latency, Morris Water Maze, Improvement over P-Control": 61}, {"smiles": "Cn1c(=O)[nH]c2nc[nH]c2c1=O", "note": "[1-Methylxanthine, 1-methylxanthine]", "rat escape latency, Morris Water Maze, Improvement over P-Control": 51}]}, {"tested_on": "brain biomarkers", "assay": "Brain biomarkers in rats of the Morris Water Maze example", "format": "in vivo, Swiss Albino Wistar rats", "design": "Achetylcholine, Improvement over P-Control / Dopamine, Improvement over P-Control / Glutathione, Improvement over P-Control: concentration or dose not given beside the values", "settings": "oral ten days, Scopolamine 1 mg/kg", "method": "as §1\nas §2, with “Morris Water” for “Elevated Plus”\nas §3", "units": {"Achetylcholine, brain biomarker": "U/ml", "Dopamine, brain biomarker": "ng/L", "Glutathione, brain biomarker": "µg/mL"}, "values": [{"smiles": "O=C(/C=C/c1ccc(O)c(O)c1)O[C@@H]1C[C@](O)(C(=O)O)C[C@@H](O)[C@H]1O", "note": "[Chlorogenic acid]", "Achetylcholine, brain biomarker": 33.03, "Dopamine, brain biomarker": 14.74, "Glutathione, brain biomarker": 16.85}, {"smiles": "Cn1c(=O)[nH]c2ncn(C)c2c1=O", "note": "[Paraxanthine]", "Achetylcholine, brain biomarker": 34.16, "Dopamine, brain biomarker": 14.21, "Glutathione, brain biomarker": 17.47}, {"smiles": "Cn1c(=O)[nH]c2nc[nH]c2c1=O", "note": "[1-Methylxanthine, 1-methylxanthine]", "Achetylcholine, brain biomarker": 30.87, "Dopamine, brain biomarker": 13.66, "Glutathione, brain biomarker": 16.06}]}, {"tested_on": "brain biomarkers", "assay": "Brain biomarkers in rats of the Morris Water Maze example", "format": "in vivo, Swiss Albino Wistar rats", "design": "Achetylcholine, Improvement over P-Control / Dopamine, Improvement over P-Control / Glutathione, Improvement over P-Control: concentration or dose not given beside the values", "settings": "vs Pathological Control (Scopolamine)", "method": "as §1\nas §2, with “Morris Water” for “Elevated Plus”\nas §3", "units": {"Achetylcholine, Improvement over P-Control": "%", "Dopamine, Improvement over P-Control": "%", "Glutathione, Improvement over P-Control": "%"}, "values": [{"smiles": "O=C(/C=C/c1ccc(O)c(O)c1)O[C@@H]1C[C@](O)(C(=O)O)C[C@@H](O)[C@H]1O", "note": "[Chlorogenic acid]", "Achetylcholine, Improvement over P-Control": 63, "Dopamine, Improvement over P-Control": 43, "Glutathione, Improvement over P-Control": 41}, {"smiles": "Cn1c(=O)[nH]c2ncn(C)c2c1=O", "note": "[Paraxanthine]", "Achetylcholine, Improvement over P-Control": 69, "Dopamine, Improvement over P-Control": 38, "Glutathione, Improvement over P-Control": 46}, {"smiles": "Cn1c(=O)[nH]c2nc[nH]c2c1=O", "note": "[1-Methylxanthine, 1-methylxanthine]", "Achetylcholine, Improvement over P-Control": 53, "Dopamine, Improvement over P-Control": 33, "Glutathione, Improvement over P-Control": 34}]}, {"tested_on": "Pentobarbital Sodium induced sleep activity in experimental mice", "assay": "Pentobarbital Sodium induced sleep activity in mice", "format": "in vivo, Swiss Albino Mice", "settings": "test substance intraperitoneal 30 min before 40 mg/kg Pentobarbital sodium, 50 mg HED PX or 1-MX, 25 mg HED CA", "method": "(§5) The present example was conducted to evaluate the efficacy of test substances on Pentobarbital Sodium induced sleep activity in experimental mice.\n(§6) The mice were randomized into nine groups containing eight mice in each group. […] The dose information can be found below in Table 2.\n(§7) On the day of experiment, mice from different groups were treated with the control and test substances respectively. After thirty minutes, all groups of mice, except for the Normal Control group were, administered with 40 mg/kg body doses of Pentobarbital sodium to induce sleep. Administration of the test substances was done via intraperitoneal injection. The onset time of sleep was recorded for all the mice. After induction of sleep, mice were placed in the inverted position and when sedation was over, time point where the mice return to its normal posture was noted. The time interval between dosing and start of sleep was recorded as latency time.", "units": {"Duration of sleep": "min", "Onset time of sleep": "min"}, "values": [{"smiles": "O=C(/C=C/c1ccc(O)c(O)c1)O[C@@H]1C[C@](O)(C(=O)O)C[C@@H](O)[C@H]1O", "note": "[Chlorogenic acid]", "Duration of sleep": 74.88, "Onset time of sleep": 40.5}, {"smiles": "Cn1c(=O)[nH]c2ncn(C)c2c1=O", "note": "[Paraxanthine]", "Duration of sleep": 66.13, "Onset time of sleep": 41.5}, {"smiles": "Cn1c(=O)[nH]c2nc[nH]c2c1=O", "note": "[1-Methylxanthine, 1-methylxanthine]", "Duration of sleep": 57.75, "Onset time of sleep": 42.25}]}, {"tested_on": "Pentobarbital Sodium induced sleep activity in experimental mice", "assay": "Pentobarbital Sodium induced sleep activity in mice", "format": "in vivo, Swiss Albino Mice", "settings": "vs Pathological Control, 50 mg HED PX or 1-MX, 25 mg HED CA", "method": "as §5, §6, §7", "units": {"Duration of sleep, Improvement over P-Control": "%", "Onset time of sleep, Improvement over P-Control": "%"}, "values": [{"smiles": "O=C(/C=C/c1ccc(O)c(O)c1)O[C@@H]1C[C@](O)(C(=O)O)C[C@@H](O)[C@H]1O", "note": "[Chlorogenic acid]", "Duration of sleep, Improvement over P-Control": 169, "Onset time of sleep, Improvement over P-Control": "−20"}, {"smiles": "Cn1c(=O)[nH]c2ncn(C)c2c1=O", "note": "[Paraxanthine]", "Duration of sleep, Improvement over P-Control": 137, "Onset time of sleep, Improvement over P-Control": "−18"}, {"smiles": "Cn1c(=O)[nH]c2nc[nH]c2c1=O", "note": "[1-Methylxanthine, 1-methylxanthine]", "Duration of sleep, Improvement over P-Control": 107, "Onset time of sleep, Improvement over P-Control": "−16"}]}]}
